How the values were obtained:
[1] = biological target: T1, MtEccC3-ATPase3 (Mycobacterium tuberculosis, UniProt P9WNA9)
T1 construct: gene eccC3

[2] = biological target: T2, MtEccC5-ATPase3 (Mycobacterium tuberculosis, UniProt P9WNA5)
T2 construct: gene eccC5

[3] = biological target: T3, MtEccC2-ATPase3 (Mycobacterium tuberculosis, UniProt O05450)
T3 construct: gene eccC2
T3 sequence (O05450 1127-1396 limits assumed): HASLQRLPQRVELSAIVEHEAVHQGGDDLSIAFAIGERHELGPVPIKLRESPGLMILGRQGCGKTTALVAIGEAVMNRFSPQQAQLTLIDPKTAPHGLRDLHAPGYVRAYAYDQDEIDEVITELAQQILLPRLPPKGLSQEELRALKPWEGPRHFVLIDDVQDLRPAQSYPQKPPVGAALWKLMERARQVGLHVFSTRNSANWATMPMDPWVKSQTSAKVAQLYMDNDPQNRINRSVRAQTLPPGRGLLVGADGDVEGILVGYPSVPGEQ

T2 sequence (P9WNA5 1125-1391): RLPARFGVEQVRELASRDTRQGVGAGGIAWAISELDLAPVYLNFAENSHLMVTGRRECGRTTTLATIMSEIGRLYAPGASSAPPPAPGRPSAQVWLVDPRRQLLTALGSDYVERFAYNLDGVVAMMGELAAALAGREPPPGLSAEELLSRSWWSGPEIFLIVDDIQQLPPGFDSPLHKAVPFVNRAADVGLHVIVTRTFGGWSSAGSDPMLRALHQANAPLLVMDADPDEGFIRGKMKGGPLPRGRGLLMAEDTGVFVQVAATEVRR
T1 sequence (P9WNA9 1060-1330): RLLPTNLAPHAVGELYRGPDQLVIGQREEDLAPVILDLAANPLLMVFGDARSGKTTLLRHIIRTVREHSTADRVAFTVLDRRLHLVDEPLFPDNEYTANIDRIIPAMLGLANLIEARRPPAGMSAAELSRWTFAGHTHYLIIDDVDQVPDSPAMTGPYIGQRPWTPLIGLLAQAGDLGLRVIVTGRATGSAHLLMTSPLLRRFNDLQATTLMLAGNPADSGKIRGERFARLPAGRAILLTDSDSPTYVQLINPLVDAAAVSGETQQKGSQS

Q: How did the X-ray crystal structure [1] turn out when `Nc1ncnc2c1ncn2[C@@H]1O[C@H](COP(=O)(O)OP(=O)(O)OP(=O)(O)O)[C@@H](O)[C@H]1O` [ATP] was run?
A: The X-ray crystal structure was “In our structures, ATP and a magnesium ion bind to the nucleotide-binding site”.

Q: And the X-ray crystal structure [2]?
A: The X-ray crystal structure was “In our structures, ATP and a magnesium ion bind to the nucleotide-binding site”.

Q: What about the X-ray crystal structure [3] of the same compound?
A: The X-ray crystal structure was “In our structures, ATP and a magnesium ion bind to the nucleotide-binding site”.

Reference: paper PMC6954902 (Protein & Cell, 2019)
